According to patent publication US20150306108A1, “COMPOSITIONS OF ALDH1A1 INHIBITORS AND METHODS OF USE IN TREATING CANCER” (Indiana University Research & Technology Corporation, priority 2014, published 2015):
Read-outs that look alike come from different tables or passages of the source.

Tests used:
[1] = biological target: T1, ALDH1A1 (Homo sapiens, UniProt P00352); experiment: ALDH1A1 aldehyde oxidation (dehydrogenase) activity assay, NADH formation at 340 nm; type: biochemical
T1 construct: made in house
T1 sequence (P00352 1-501): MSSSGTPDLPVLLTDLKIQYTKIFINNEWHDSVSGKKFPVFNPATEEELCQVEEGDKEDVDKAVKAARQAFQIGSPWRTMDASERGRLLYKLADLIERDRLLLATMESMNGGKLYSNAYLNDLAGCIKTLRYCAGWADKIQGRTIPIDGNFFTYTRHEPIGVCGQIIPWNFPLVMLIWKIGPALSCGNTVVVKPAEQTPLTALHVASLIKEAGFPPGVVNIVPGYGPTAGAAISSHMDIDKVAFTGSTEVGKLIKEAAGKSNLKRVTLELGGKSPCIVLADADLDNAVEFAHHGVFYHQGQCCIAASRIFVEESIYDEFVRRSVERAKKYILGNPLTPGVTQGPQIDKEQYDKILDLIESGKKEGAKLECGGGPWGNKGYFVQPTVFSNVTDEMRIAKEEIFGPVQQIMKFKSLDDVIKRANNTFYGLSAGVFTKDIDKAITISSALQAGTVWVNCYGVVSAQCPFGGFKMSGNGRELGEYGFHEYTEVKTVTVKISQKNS

[2] = biological target: T2, ALDH3A1 (Homo sapiens, UniProt P30838); experiment: ALDH3A1 benzaldehyde oxidation activity assay; type: biochemical; details: Table 4; NI/NI(A) at 100 μM compound; read-out: IC50 in μM (SE) ALDH3A1
T2 construct: made in house
T2 sequence (P30838 1-453): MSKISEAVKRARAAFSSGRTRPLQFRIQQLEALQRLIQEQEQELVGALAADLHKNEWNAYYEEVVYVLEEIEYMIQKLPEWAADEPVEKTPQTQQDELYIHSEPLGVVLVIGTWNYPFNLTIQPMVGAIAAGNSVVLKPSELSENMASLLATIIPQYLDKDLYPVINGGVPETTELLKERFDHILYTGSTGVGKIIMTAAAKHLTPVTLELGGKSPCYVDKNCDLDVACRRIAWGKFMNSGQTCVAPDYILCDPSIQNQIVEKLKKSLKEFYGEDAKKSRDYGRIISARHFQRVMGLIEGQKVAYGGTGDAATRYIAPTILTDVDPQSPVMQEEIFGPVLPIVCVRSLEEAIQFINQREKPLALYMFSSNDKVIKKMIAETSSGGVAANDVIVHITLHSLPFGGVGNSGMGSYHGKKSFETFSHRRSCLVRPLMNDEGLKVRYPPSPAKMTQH
Method: Hits from the HTS were ordered from ChemDiv to determine if they had any effect on aldehyde oxidation and whether they were selective for ALDH1A1 compared to ALDH2 and ALDH3A1. Dehydrogenase activity of the three isoenzymes were assayed by monitoring the production of NADH at 340 nm (molar extinction coefficient of 6220 M^−1 cm^−1) on a Beckman DU-640 or Cary 300 Bio UV-Vis spectrophotometer for 2 to 3 minutes. For ALDH1A1 and ALDH2, the reaction contained 100-200 nM enzyme, 200 μM NAD^+, 100 μM propionaldehyde, and 1% DMSO in 50 mM Na^+ BES, pH 7.5 at room temperature. For ALDH3A1, the reaction contained 20 nM enzyme, 200 μM NAD^+, 300 μM benzaldehyde, and 1% DMSO in either 100 mM sodium phosphate or 50 mM Na^+ BES at pH 7.5 at room temperature.
For most compounds, 20 μM concentration was used for the selectivity assays. […] Following a 2 minute incubation of enzyme, compound, and NAD^+, the reaction was initiated by adding substrate. […] Data were fit to the four parameter EC50 equation using SigmaPlot (StatSys v12.3).
Dehydrogenase activity of purified recombinant ALDH1A1, ALDH1A2, ALDH1A3, ALDH1B1, ALDH2, and ALDH3A1 was assayed spectrophotometrically by monitoring the formation of NADH at 340 nm (molar extinction coefficient of 6220 M^−1 cm^−1) on a Beckman DU-640 or Cary 300 Bio UV-Vis spectrophotometer. Characterization of ALDH1A1 WT and ALDH1A1 G458N were performed by co-varying acetaldehyde and NAD^+ concentrations in reactions containing 150-300 nM enzyme, 50-500 μM or 20-200 μM acetaldehyde, and 50-500 μM NAD^+ in 50 mM sodium BES, pH 7.5 at 25° C. Reactions were initiated by adding enzyme. Selectivity of compounds for dehydrogenase activity of ALDH1A1, ALDH1A2, ALDH1A3, ALDH1B1 and ALDH2 were measured in a solution containing 100-200 nM enzyme, 200 μM NAD^+, 1% DMSO, and 100 μM propionaldehyde (non-saturating for all enzymes tested, except ALDH2) in 50 mM sodium BES. ALDH3A1 activity was measured under the following conditions: 25 nM enzyme, 200 μM NAD^+, 1% DMSO, and 300 μM benzaldehyde (˜KM) in either 100 mM sodium phosphate buffer, pH 7.5 or 50 mM sodium BES, pH 7.5. All assays were performed at 25° C. and were initiated by the addition of the aldehyde substrate following a 2 minute pre-incubation with compound and cofactor. Selectivity was initially tested using 20 μM compound, with ALDH1A1-selective modulators further tested using 100 μM compound. […] After a 2 minute pre-incubation with compound and NAD^+, all reactions were initiated by the addition of propionaldehyde. Data were fit to the four parameter EC50 equation using SigmaPlot (StatSys v12.3). The values represent the average of three independent experiments (each n=3). The mode of inhibition was determined via steady-state kinetics by co-varying inhibitor and substrate concentrations at fixed concentration of the second substrate. All reactions contained 100-150 nM ALDH1A1 and 1% DMSO in 50 mM sodium BES, pH 7.5 at 25° C. […] All data were fit to competitive, noncompetitive, uncompetitive, and mixed inhibition models using both single substrate-single inhibitor or tight binding inhibition programs in SigmaPlot (StatSys v12.3). The appropriate model was selected through analysis of goodness-of-fit and the residuals of those fits. The values represent the average of three independent experiments (each n=3) using at least two protein preps.
ALDH1A1, ALDH1A2, ALDH1A3, ALDH2, and ALDH3A1 were produced and purified as previously described. A highthroughput screen (HTS) of 64,000 compounds from the ChemDiv Corp. was performed to identify activators and inhibitors of ALDH1A1. The hydrolysis of para-nitrophenylacetate was used as a measure ALDH1A1 activity (see SM). Selectivity for closely related orthologs was tested at 20 and 100 μM using purified recombinant human ALDH1A1, ALDH1A2, ALDH1A3, ALDH2, and ALDH3A1. […]

[3] = tested on: IGROV1 cells; experiment: Spheroid formation under low attachment culture conditions; type: cell-based, human; details: 50 μM, 7 days, low attachment
Method: Ovarian cancer cell lines or primary cells were seeded at a concentration of 25,000 cells/ml in Mammocult complete medium (StemCell Technologies) and ultra-low attachment plates (Corning, Corning, N.Y.). Spheroids were trypsinized every 7 days and re-plated to generate successive generations. To observe spheroid morphology, A2780, SKOV3, IGROV1, and primary cells were cultured in a rotating bioreactor (Synthecon, Houston, Tex.) until […] compact spheroids were visible (10-30 days). They were harvested, preserved with Histochoice MB Tissue Fixative (Amresco, Solon, Ohio) for 1 hour, and embedded in Immuno-bed resin (Polysciences, Warrington, Pa.). Two micron thick sections were cut on an ultramicrotome and stained with 0.1% methylene blue/0.15% basic fuchsin in 50% methanol.
Cell viability was measured by the trypan blue (ThermoScientific) exclusion test. Cell proliferation was quantified by the MTT assay. Spheroids were counted after centrifugation at 300×g for 5 minutes. All assays were performed in four replicates. Data are presented as means±SEM.

[4] = biological target: T3, ALDH1A2 (Homo sapiens, UniProt O94788); experiment: biochemical; type: biochemical; details: Table 4; NI/NI(A) at 100 μM compound; read-out: IC50 in μM (SE) ALDH1A2
T3 sequence (O94788 1-518): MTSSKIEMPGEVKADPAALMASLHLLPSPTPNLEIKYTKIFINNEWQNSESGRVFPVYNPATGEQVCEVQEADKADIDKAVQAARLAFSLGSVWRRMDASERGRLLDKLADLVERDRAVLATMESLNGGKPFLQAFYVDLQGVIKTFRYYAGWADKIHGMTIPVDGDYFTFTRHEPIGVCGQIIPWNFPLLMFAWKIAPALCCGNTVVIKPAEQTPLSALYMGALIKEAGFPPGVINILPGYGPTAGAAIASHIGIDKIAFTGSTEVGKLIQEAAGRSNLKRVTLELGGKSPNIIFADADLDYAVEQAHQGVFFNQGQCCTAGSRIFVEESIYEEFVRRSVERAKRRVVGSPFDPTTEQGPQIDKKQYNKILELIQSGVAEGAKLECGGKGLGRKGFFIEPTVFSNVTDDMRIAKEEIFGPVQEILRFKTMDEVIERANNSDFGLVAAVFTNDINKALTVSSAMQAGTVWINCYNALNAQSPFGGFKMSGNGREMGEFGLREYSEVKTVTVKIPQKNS

[5] = 100 μM propionaldehyde, 200 μM NAD+, mean/SEM of three independent assays, read-out: IC50 values with ALDH1A1 for compounds that inhibit dehydrogenase activity
[6] = list of inhibitors in summary and description, read-out: IC50 with the listed inhibitors of ALDH1A1 activity

Row | SMILES | IC50 [1, 5] [µM] | IC50 [1, 6] [µM] | further results
1 | Cc1ccc(S(=O)(=O)NCC2CCC(C(=O)NCc3ccco3)CC2)cc1 (stereo not drawn) [CM307] | 0.57 | 0.57 | –
2 | CC(C)CCn1c(CN2CCC(C)CC2)nc2c1c(=O)n(C)c(=O)n2C [CM057] | – | – | IC50 [2]: > 100 µM
3 | Cc1ccc(-c2nnc(N3CCN(C)CC3)c3ccccc23)cc1C [CM001] | 1.1 | 1.1 | –
4 | CCN(CC)c1ccc(C=O)cc1 [DEAB, diethylaminobenzaldehyde, reference compound] | – | – | formation of spheres [3]: completely inhibited
5 | NC(=O)CSc1nc2c(sc3ccccc32)c(=O)n1CCCN1CCCC1 [CM037a] | 23 | – | –
6 | Cc1ccc(Cn2c(CN3CCN(c4ccccc4)CC3)nc3c2c(=O)n(C)c(=O)n3C)cc1 [CM025] | – | – | IC50 [2]: > 100 µM
7 | CCN1CCN(Cc2nc3c(c(=O)n(C)c(=O)n3C)n2CC(=O)c2ccccc2)CC1 [CM027] | – | – | IC50 ([1]; Table 4, NI/NI(A) at 100 μM compound, * <70% maximum inhibition, read-out: IC50 in μM (SE) ALDH1A1): 6.1 µM
8 | C=CCc1cccc(CNc2nc3ccccc3n2CCC)c1O [CM010] | 1.3 | 1.3 | –
9 | Cc1cc(C)c(S(=O)(=O)Nc2ccc(O)c(Cl)c2)cc1C [CM047] | 0.31 | 0.31 | –
10 | COc1ccc(S(=O)(=O)N2N=C(c3cccc(NS(C)(=O)=O)c3)CC2c2ccco2)cc1 (stereo not drawn) [CM045] | 2.5 | 2.5 | –
11 | Cc1nc2ccccc2c2oc(C(=O)N3CCCCC3)cc12 [CM038] | 0.26 | 0.26 | IC50 ([1]; propionaldehyde oxidation, values in nM, read-out: IC50 with ALDH1A1): < 0.3 µM
12 | Cc1cccc(Cn2c(CN3CCN(C(=O)c4ccco4)CC3)nc3c2c(=O)n(C)c(=O)n3C)c1 [CM055] | – | – | IC50 [2]: > 100 µM; IC50 [4]: > 100 µM
13 | CCC(C)NC(=O)C1(O)c2cc(Br)ccc2NC(O)N1c1ccc(Cl)cc1 (stereo not drawn) [CM020] | 0.45 | 0.45 | –
14 | CN1CCN(C(=O)c2ccc3c(c2)N(Cc2ccccc2)CCS3)CC1 [CM306] | 3.5 | 3.5 | –
15 | CC(C)CCn1c(CN2CCC(C(N)=O)CC2)nc2c1c(=O)n(C)c(=O)n2C [CM053] | – | – | IC50 [2]: > 100 µM
16 | CCOc1cc(S(=O)(=O)NCc2cccnc2)c(C)cc1C [CM009] | 5.3 | 5.3 | –
